Laboratory results published in the supplement of paper PMC10307832.

How the values were obtained:
Assay in all cases: relative viability (nuclei count vs DMSO), 5 days (fraction); higher = more cells survive
Bortezomib + Luminespib = compound: CC(C)C[C@H](NC(=O)[C@H](Cc1ccccc1)NC(=O)c1cnccn1)B(O)O [Bortezomib] + CCNC(=O)c1noc(-c2cc(C(C)C)c(O)cc2O)c1-c1ccc(CN2CCOCC2)cc1 [Luminespib] (partner 0.01 µM)
Method in brief: (§1)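 Relative viability divides the nuclei count in treated wells by that in vehicle wells. Lung cancer cell lines were seeded in 1536-well plates, dosed by pin tool the next day, and fixed and stained after 5 days in one step with final 0.05% Triton X-100, 1% formaldehyde and 1 ug/ml Hoechst. Dosing was a single drug or a fixed anchor-drug dose plus five library-drug doses (not always all listed) in √10 steps, and values are medians of duplicate plates imaged at 4×.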

Bortezomib + Navitoclax = compound: CC(C)C[C@H](NC(=O)[C@H](Cc1ccccc1)NC(=O)c1cnccn1)B(O)O [Bortezomib] + CC1(C)CCC(c2ccc(Cl)cc2)=C(CN2CCN(c3ccc(C(=O)NS(=O)(=O)c4ccc(N[C@H](CCN5CCOCC5)CSc5ccccc5)c(S(=O)(=O)C(F)(F)F)c4)cc3)CC2)C1 [Navitoclax] (partner 0.5 µM)
Method in brief: as §1

[1] = compound: CC1=CC(=NN1)NC2=CC(=NC(=N2)/C=C/C3=CC=CC=C3)N4CCN(CC4)C + Cc1nc(NC(=O)N2CCC[C@H]2C(N)=O)sc1-c1ccnc(C(C)(C)C(F)(F)F)c1 [Alpelisib] (partner 2 µM)
Method in brief: as §1

Obatoclax + Pictilisib = compound: COC1=CC(c2cc3ccccc3[nH]2)=N/C1=C\c1[nH]c(C)cc1C [Obatoclax] + CS(=O)(=O)N1CCN(Cc2cc3nc(-c4cccc5[nH]ncc45)nc(N4CCOCC4)c3s2)CC1 [Pictilisib] (partner 1 µM)
Method in brief: as §1

Cell Line | relative viability (Bortezomib + Luminespib; first compound 0.0002 µM) | relative viability (Bortezomib + Luminespib; first compound 0.000632 µM) | relative viability (Bortezomib + Luminespib; first compound 0.002 µM) | relative viability (Bortezomib + Luminespib; first compound 0.006325 µM) | relative viability (Bortezomib + Luminespib; first compound 0.02 µM) | relative viability (Bortezomib + Navitoclax; first compound 0.0002 µM) | relative viability (Bortezomib + Navitoclax; first compound 0.000632 µM) | relative viability (Bortezomib + Navitoclax; first compound 0.002 µM) | relative viability (Bortezomib + Navitoclax; first compound 0.006325 µM) | relative viability (Bortezomib + Navitoclax; first compound 0.02 µM) | relative viability ([1]; first compound 0.08 µM) | relative viability ([1]; first compound 0.253 µM) | relative viability ([1]; first compound 0.8 µM) | relative viability ([1]; first compound 2.53 µM) | relative viability ([1]; first compound 8 µM) | relative viability (Obatoclax + Pictilisib; first compound 0.01 µM) | relative viability (Obatoclax + Pictilisib; first compound 0.03162 µM) | relative viability (Obatoclax + Pictilisib; first compound 0.1 µM) | relative viability (Obatoclax + Pictilisib; first compound 0.3162 µM) | relative viability (Obatoclax + Pictilisib; first compound 1 µM)
HCC-15 | 0.322 | 0.343 | 0.405 | 0.0965 | 0.0909 | 0.706 | 0.681 | 0.692 | 0.421 | 0.116 | 0.856 | 1.03 | 0.828 | 0.494 | 0.0833 | 0.737 | 0.658 | 0.744 | 0.686 | 0.471
SK-LU-1 | 0.218 | 0.205 | 0.201 | 0.155 | 0.118 | 0.781 | 0.83 | 0.903 | 0.0872 | 0.0835 | 1.05 | 0.972 | 0.636 | 0.223 | 0.113 | 0.616 | 0.559 | 0.46 | 0.364 | 0.256
NCI-H2023 | 0.638 | 0.694 | 0.789 | 0.118 | 0.0549 | 0.967 | 0.994 | 0.936 | 0.17 | 0.0898 | 0.482 | 0.645 | 0.626 | 0.417 | 0.0558 | 0.29 | 0.22 | 0.265 | 0.151 | 0.0879
NCI-H1355 | 0.668 | 0.657 | 0.645 | 0.233 | 0.167 | 0.85 | 0.95 | 0.737 | 0.604 | 0.139 | 0.863 | 0.859 | 0.683 | 0.605 | 0.192 | 0.405 | 0.412 | 0.406 | 0.384 | 0.327
SW 1573 | 0.162 | 0.222 | 0.214 | 0.0768 | 0.0532 | 0.849 | 1.12 | 0.928 | 0.0531 | 0.0615 | 0.886 | 1.07 | 0.785 | 0.499 | 0.124 | 0.466 | 0.539 | 0.506 | 0.44 | 0.519
LU99A | 0.227 | 0.178 | 0.231 | 0.24 | 0.184 | 0.824 | – | 0.945 | 0.384 | 0.132 | 0.459 | 0.514 | 0.324 | 0.157 | 0.129 | 0.337 | 0.298 | 0.364 | 0.263 | 0.2
LCLC-97TM1 | 0.674 | 0.756 | 0.687 | 0.123 | 0.139 | 0.586 | 0.451 | 0.186 | 0.222 | 0.0968 | 0.225 | 0.288 | 0.191 | 0.146 | 0.111 | 0.18 | 0.201 | 0.325 | 0.139 | 0.154
LC-2-ad | 0.972 | 1.06 | 0.64 | 0.226 | 0.214 | 0.422 | – | 0.543 | 0.0995 | 0.0978 | 0.861 | 0.781 | 0.714 | 0.0868 | 0.0702 | 0.497 | 0.563 | 0.602 | 0.357 | 0.154
NCI-H1395 | 0.864 | 0.761 | 0.445 | 0.334 | 0.263 | 1.27 | 1.52 | 0.448 | 0.39 | 0.345 | 1 | 1.07 | 1.03 | 0.602 | 0.289 | 0.815 | 0.488 | 0.485 | 0.811 | 0.519
NCI-H2228 | 0.129 | 0.117 | 0.137 | 0.0914 | 0.093 | 1 | 1.05 | 0.368 | 0.0925 | 0.0601 | 0.632 | 0.714 | 0.437 | 0.112 | 0.0706 | 0.278 | 0.419 | 0.384 | 0.294 | 0.174
HOP-62 | 0.921 | 0.907 | 0.67 | 0.288 | 0.0887 | 1.17 | 1.05 | 0.747 | 0.243 | 0.074 | 0.937 | 1.09 | 0.931 | 0.942 | 0.164 | 0.649 | 0.803 | 0.449 | 0.761 | 0.757
NCI-H2347 | 0.558 | 0.607 | 0.411 | 0.25 | 0.208 | 0.513 | 0.847 | 0.651 | 0.197 | 0.193 | 1.06 | 1.15 | 1.07 | 0.915 | 0.517 | 0.904 | 0.648 | 0.695 | 0.489 | 0.831
NCI-H2087 | 0.163 | 0.145 | 0.164 | 0.0644 | 0.0565 | 0.991 | 1.02 | 0.509 | 0.0888 | 0.0686 | 1.11 | 1.04 | 1.07 | 0.965 | 0.135 | 0.908 | 0.925 | 0.825 | 0.334 | 0.206
EPLC-272H | 0.36 | 0.143 | 0.217 | 0.148 | 0.115 | – | – | 1.06 | 0.0971 | 0.0714 | 0.901 | 1.07 | 0.79 | 0.513 | 0.244 | 0.338 | 0.324 | 0.315 | 0.273 | 0.343
LXF-289 | 0.68 | 0.598 | 0.639 | 0.138 | 0.074 | 0.936 | 0.942 | 0.955 | 0.0537 | 0.0449 | 1.07 | 1.06 | 0.919 | 0.199 | 0.0577 | 0.778 | 0.773 | 0.751 | 0.72 | 0.694
COR-L23 | 0.639 | 0.669 | 0.61 | 0.0526 | 0.058 | 0.933 | 1.02 | 0.528 | 0.0681 | 0.0713 | 0.751 | 0.722 | 0.57 | 0.178 | 0.0573 | 0.792 | 0.946 | 0.737 | 0.252 | 0.154
